The record followed here is BindingDB's records for doi:10.1021/jm00384a023 (1987).

This assay in a line: Inhibitor concentration required to block 50% of the specific [3H]PAF binding, obtained as natural product.

With `C=CCC1=CC2(OCC)C(=CC1=O)O[C@H](c1ccc(OC)c(OC)c1)[C@H]2C` (some centres not stated), the IC50 is 0.5 µM. This lies in the sub-micromolar range.

`CCCC1=C[C@@]2(OC)C(=CC1=O)O[C@H](c1ccc(OC)c(OC)c1)[C@H]2C` showed an IC50 of 0.07 µM. Against the preceding molecule, the IC50 is about 7.1-fold lower.

Broadly, the IC50 is the concentration that inhibits the measured activity by half.
